Laboratory results published in article PMC11277004, “Di- and Triselenoesters—Promising Drug Candidates for the Future Therapy of Triple-Negative Breast Cancer” (International Journal of Molecular Sciences, 2024).
Like-named read-outs stand apart in the source and are kept apart here.

Tests used:
[1] = system: MDA-MB-231 triple-negative breast cancer cells; experiment: MTT cytotoxicity test, MDA-MB-231; format: cell-based, human; conditions: MDA-MB-231, 24 h incubation, read-out: IC50, cell viability (MTT)
Description: (§1) MCF-7 and MDA-MB-231 human breast cancer cell lines, as well as MCF-10A normal human breast epithelial cells, were acquired from the American Type Culture Collection (ATCC, Manassas, VA, USA). The characteristics of the breast cancer cell lines used in this study are compared in Table 1. MCF-7 and MDA-MB-231 cells were cultured in Dulbecco’s modified Eagle’s medium (Gibco, San Diego, CA, USA), while MCF-10A cells were cultured in the mammary epithelial cell growth medium with the following supplements: BPE, hEGF, insulin, hydrocortisone, GA-1000 (Lonza, Basel, Switzerland). All media were complemented by 10% of fetal bovine serum (FBS) and 1% of the following antibiotics: penicillin and streptomycin (both Gibco, San Diego, CA, USA). The cells were maintained in an incubator that provides the optimal growth conditions for the cell culture: 5% CO2, 37 °C, and humidity in a range of 90–95%. The cells were cultured in 100 mm plates (Sarstedt, Newton, NC, USA). Subsequently, after obtaining a subconfluent cell culture, the cells were detached with 0.05% trypsin with 0.02% EDTA (Gibco, San Diego, CA, USA). […] In this study, cells that obtained 80% confluence were used. The MTT assay was used to determine the cytotoxic effects of the compounds in the study on MCF-7 and MDA-MB-231 breast cancer cells as well as MCF-10A normal human breast epithelial cells based on Carmichael’s method. […] After this time, the medium was removed, and the cell monolayer was washed with warm phosphate-buffered saline (PBS) without calcium and magnesium. In the next step, PBS and MTT solution in PBS (5 mg/mL) were added to each well to obtain a final MTT concentration of 0.5 mg/mL, and then the cells were incubated for 4 h (37 °C temperature, 5% CO2, 90–95% humidity). After the incubation period, the contents of each well were removed, 1 mL of DMSO was added to dissolve the formazan, and then the plate with the added DMSO was mixed for 5–10 min on a microplate shaker (Boeco, Hamburg, Germany). Then, 10 µL of Sorensen’s glycine buffer (a solution of 0.1 M glycine and 0.1 M sodium chloride adjusted to pH 10.5 with 0.1 M sodium hydroxide) was added. The absorbance of the obtained solution was immediately measured at a wavelength of λ = 570 nm using a Thermo Scientific Evolution 201 UV–VIS spectrophotometer (Thermo Fisher Scientific, Waltham, MA, USA). The absorbance result obtained in the control cells (without the addition of the tested compounds) was taken as 100%, while the viability of cells incubated with the tested compounds was presented as a percentage of the control value.

[2] = system: MCF-10A normal human breast epithelial cells; experiment: DNA biosynthesis assay ([3H]-thymidine incorporation), MCF-10A; format: cell-based; conditions: read-out: IC50, DNA biosynthesis
Description: The study of the antiproliferative properties (intensity of [^3H]-thymidine incorporation into cell DNA) of the tested derivatives against tested cell lines (MCF-7, MDA-MB-231, MCF-10A) was performed after 24 h incubation with varied concentrations of the tested compounds in the medium (0.5–5 µM) in 6-well plates (baseline seeding density: 5 × 10^5 cells/well). After 24 h the medium was removed, the cells were washed with PBS (Corning, Kennebunk, ME, USA), and a fresh medium was added. After that, the cells were treated with 0.5 µCi of tritium-labeled thymidine (specific activity 7 Ci/mmol) by incubating them with this compound for 4 h under the same conditions as the cell culture. In the first step, the medium was removed, and the cell monolayer was washed twice with 1 mL of 0.05 M Tris-HCl buffer pH 7.4 containing 0.11 M NaCl. To denature proteins, the cells were washed twice with 1 mL of 5% trichloroacetic acid (TCA) solution. Finally, cell lysis was performed by adding 1 mL of 0.1 M sodium hydroxide (NaOH) solution containing 1% sodium dodecyl sulfate (SDS) to each well. After five minutes, the obtained cell lysates were transferred to scintillation vials with 2 mL of scintillation fluid added to them beforehand. Radioactivity was measured using the Scintillation Counter 1900 TR, TRI-CARB (Packard, Perkin Elmer, Inc., San Jose, CA, USA). The intensity of DNA biosynthesis in the analyzed cells was expressed in terms of dpm/well. The result of the radioactivity measurement in the control cells (without the addition of tested compounds) was taken as 100%, while the values of cells incubated with the tested compounds were presented as a percentage of the control value.

[3] = system: LC3A/B; experiment: LC3A/B protein level by flow cytometry, MDA-MB-231; format: cell-based, human; conditions: 24 h
Description: (§2) For this purpose, Akt (PE), Bax (FITC), Bcl-2 (Alexa Fluor® 647), LC3A/B (Alexa Fluor® 488), and p53 (Alexa Fluor® 488) antibodies conjugated to different fluorochromes (all from Cell Signaling Technology, Beverly, MA, USA) were utilized. Each assay was performed according to the manufacturer's protocol available on their website. After incubation with the tested compounds, the cells were centrifuged, resuspended in 4% formaldehyde (100 μL/1 × 10^6 cells), and fixed for 15 min at room temperature. Afterward, to remove the formaldehyde, the cells were washed by centrifugation with excess PBS and the permeabilization step was triggered. For this purpose, ice-cold 90% methanol was added to the pre-chilled cell pellet, gently vortexed, and incubated for 1 h on ice. Later, the cells were washed by centrifugation with excess PBS again, resuspended in 100 μL of 1:100 diluted primary antibody (stain buffer was used for dilution), and incubated for 1 h at room temperature in the dark. After incubation, the cells were washed, resuspended in 300 μL PBS, and immediately tested with a flow cytometer (BD FACSCanto II, BD Biosciences Systems, San Jose, CA, USA; 10,000 events measured). The obtained results were analyzed using the FACSDiva 6.0 software (BD Biosciences Systems, San Jose, CA, USA). In the case of the p53 protein, the MRF values were obtained first during the flow cytometer readout utilizing FACSDiva software and later analyzed using FCS Express 7 (De Novo Software, Pasadena, CA, USA). The equipment calibration was performed using the BD Cytometer Setup and Tracking Beads (BD Biosciences, San Diego, CA, USA).

[4] = system: Bax; experiment: Bax protein level by flow cytometry, MCF-7; format: cell-based, human; conditions: 24 h
Description: as §2

[5] = system: p53; experiment: p53 protein expression by flow cytometry, MCF-7; format: cell-based, human; conditions: 24 h
Description: as §2

[6] = system: MCF-10A normal human breast epithelial cells; experiment: MTT cytotoxicity test, MCF-10A; format: cell-based; conditions: 24 h incubation, read-out: IC50, cell viability (MTT)
Description: as §1

| Compound | IC50 [1] | IC50 ([2]; 24 h incubation) | LC3A/B positive cells ± SD ([3]; MDA-MB-231, 0.5 μM) | LC3A/B positive cells ± SD ([3]; MDA-MB-231, 1 μM) | Bax positive cells ± SD ([4]; MCF-7, 0.5 μM) | Bax positive cells ± SD ([4]; MCF-7, 1 μM) | p53 protein expression, MRF ([5]; MCF-7, 0.5 μM) | p53 protein expression, MRF ([5]; MCF-7, 1 μM) | IC50 [6] | IC50 ([1]; Homo sapiens) | IC50 ([2]; Homo sapiens, 24 h) | IC50 ([6]; Homo sapiens) |
| --- | --- | --- | --- | --- | --- | --- | --- | --- | --- | --- | --- | --- |
| N.N.[Cl][Pt][Cl] [Cisplatin, reference compound] | > 5000 nM | > 5000 nM | 2.4 ± 0.5% | 3.2 ± 0.3% | 2.9 ± 0.9% | 3.0 ± 0.8% | 375.8 ± 19.1 | 380.5 ± 20.4 | > 5000 nM | – | – | – |
| CC(=O)C[Se]C(=O)c1ccc(C(=O)[Se]CC(C)=O)cc1 [EDAG-1, Se,Se-bis(2-oxopropyl) benzene-1,4-bis(carboselenoate)] | – | – | 10.5 ± 1.4% | 15.4 ± 1.3% | 6.1 ± 0.9% | 8.6 ± 1.0% | 404.8 ± 23.7 | 407.8 ± 22.0 | – | 710 ± 60 nM | 720 ± 70 nM | 410 ± 30 nM |
| CC(=O)C[Se]C(=O)c1cc(C(=O)[Se]CC(C)=O)cc(C(=O)[Se]CC(C)=O)c1 [EDAG-8, Se,Se,Se-tris-(2-oxopropyl) benzene-1,3,5-tris-(carboxyselenoate)] | – | – | 14.8 ± 0.5% | 17.0 ± 1.6% | 18.0 ± 1.5% | 32.1 ± 3.1% | 421.3 ± 24.5 | 450.8 ± 28.7 | – | 530 ± 30 nM | 930 ± 70 nM | 510 ± 20 nM |
